US9101640B2, “Use of Danshensu, Notoginsenoside R1 or their combination in preparation of medicaments for preventing and treating diseases caused by microcirculation disorder” (Tasly Pharmaceutical Group Co., Ltd., priority 2009, dated 2015)
“Also recorded” adds a separate entry of the source.

Tested on: leukocytes emigrated from the mesenteric venules
Assay: Counting of leukocytes emigrated from venules after I/R
Assay type: in vivo
Conditions: rat mesenteric I/R
Description: The rats were anesthetized by intraperitoneal injection of pentobarbital sodium (30 mg/kg body weight (BW)). PE venous cannulas (#3) were cannulated into the right jugular of the rats and detained. The abdomen of each rat was incised in a length of 20-30 mm along the midline. The ileum near the ileocecal junctions was gently taken out and unfolded onto the object stage mounted with glass slides. The unfolded mesenteries were continuously dripped with Krebs-Ringer buffering solution at 37° C. The microcirculatory dynamics of the mesenteries was observed under white light (12V, 100 W) using an inverted biomicroscope (Diaphot TMD-2S, Nikon, Tokyo) placed in the thermostat at 37° C. Observation sites were selected under 20× object lens, and a video recording system with a time-displaying function was used to record what had been observed on S-VHS tape and preserved. […] Normal saline was administrated at 20 min before ischemia until the end of the observation by continuously intravenous drip via jugular at a dosage of 5 mg/kg/h. PE cannulas were used to ligate non-circulatory mesenteric arteries and veins, so as to observe the arteries and veins for 10 min, and then the ligation was lifted. Time was adjusted to zero and the microcirculatory dynamics under the same visual field was continuously observed for 60 min.
DLA was administrated at 20 min before ischemia until the end of the observation by continuously intravenous drip via jugular at a dosage of 5 mg/kg/h.
R1 was administrated at 20 min before ischemia until the end of the observation by continuously intravenous drip via jugular at a dosage of 5 mg/kg/h.
The combination of DLA and R1 in a weight ratio of 4:1 was administrated at 20 min before ischemia until the end of the observation by continuously intravenous drip via jugular at a dosage of 5 mg/kg/h.
The combination of DLA and R1 in a weight ratio of 1:1 was administrated at 20 min before ischemia until the end of the observation by continuously intravenous drip via jugular at a dosage of 5 mg/kg/h. […]
Wherein, 6 rats in each group were taken out, these rats were used for observing the following aspects: the venular diameters; leukocytes rolling, adhesion, and emigration and DHR fluorescence intensities of the venular walls. […]
Microcirculatory dynamics was continuously recorded using an inverted biomicroscope […] recording system (CC-090, Flovel, Tokyo) and SIT fluorescent camera (C-2400-08, Hamamatsu Photonics, Hamamatsu).
The number of the leukocytes emigrated from the mesenteric venules was observed and counted from the replayed images at the following time points: before ischemia, and 1 min, 10 min, 20 min, 30 min, 40 min, 50 min and 60 min after the beginning of the reperfusion.

[1] = post-administration, 5 mg/kg/h continuous i.v. drip from 20 min after ischemia (DLA: 10 min after I/R)
[2] = pre-administration, 5 mg/kg/h continuous i.v. drip from 20 min before ischemia

## CC(C)=CCC[C@](C)(O[C@@H]1O[C@H](CO)[C@@H](O)[C@H](O)[C@H]1O)[C@H]1CC[C@]2(C)[C@@H]1[C@H](O)C[C@@H]1[C@@]3(C)CC[C@H](O)C(C)(C)[C@@H]3[C@@H](O[C@@H]3O[C@H](CO)[C@@H](O)[C@H](O)[C@H]3O[C@@H]3OC[C@@H](O)[C@H](O)[C@H]3O)C[C@]12C [R1, Notoginsenoside R1]
[1]
  inhibition of the emigration of leukocytes from the mesenteric venules after I/R: had significant inhibitory effects; also recorded: can inhibit
[2]
  inhibition of the emigration of leukocytes from the mesenteric venules after I/R: had significant inhibitory effects; also recorded: can inhibit

## O=C(O)C(O)Cc1ccc(O)c(O)c1 (stereo not shown) [DLA, 3,4-dihydroxyphenyl lactic acid]
[1]
  inhibition of the emigration of leukocytes from the mesenteric venules after I/R: had significant inhibitory effects; also recorded: has the same effects as those of the pre-administration
[2]
  inhibition of the emigration of leukocytes from the mesenteric venules after I/R: had significant inhibitory effects; also recorded: can inhibit
